These results are taken from the NIST ThermoML archive (doi:10.1021/je700577t).

The structures appear in SMILES notation. Numbers after ± are expanded uncertainties.

The conditions of series [1]: 101.33 kPa, Liquid.
A short description of series [2]: refractive index (Na D-line) (dimensionless). Particulars: 101.33 kPa, Liquid, Standard Abbe refractometry.

The mass density is mass per unit of volume. Usually refractive index stands for the speed of light in vacuum divided by its phase velocity in the sample. Consider `OCCO` [1,2-ethanediol], for which the mass density in series [1] (293.15 K) stood at 1115.52 ± 0.71 kg/m3. In addition, the refractive index in series [2] (293.15 K) is recorded as 1.43184 ± 0.0007.
In the case of `CC(O)CO` (configuration not stated) [1,2-propanediol], the mass density in series [1] (293.15 K) is recorded as 1032.83 ± 0.48 kg/m3. Besides, in series [2] (293.15 K), the refractive index is on record as 1.43143 ± 0.0007.
As to `C=C(C)C1CC=C(C)CC1` (configuration not stated) [1-methyl-4-(1-methylethenyl)cyclohexene], the mass density in series [1] (294 K) turned out to be 840.24 ± 2.8 kg/m3. The refractive index in series [2] (292 K) is 1.47247 ± 0.0009.
Consider `C=CC(C)(O)CCC=C(C)C` (configuration not stated) [3,7-dimethyl-1,6-octadien-3-ol], for which the mass density in series [1] (288 K) came out at 870.04 ± 2.7 kg/m3. The refractive index in series [2] (293.15 K) amounted to 1.46272 ± 0.0009.
The corresponding values for `OCCOCCO` [diethylene glycol] are 1119.74 ± 0.72 kg/m3 and 1.44724 ± 0.0007.
In the same order, the values of `OCCOCCOCCO` [triethylene glycol] are 1127.43 ± 0.74 kg/m3 and 1.45314 ± 0.0007.
